Laboratory results from ChEMBL document CHEMBL1201862, “PubChem BioAssay data set” (2004).
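Assay format: 96-well plates, 48-hour exposure. GI50 = concentration required for 50% inhibition of growth.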 Active and inactive are the calls of the source. Rule as the data show it: active = GI50 up to about 1.1 µM and inactive = higher.

Tests used:
Test in all cases: DTP human tumour cell line panel, 48 h
XF498 = test system: XF498
LXFL 529 = test system: LXFL 529
SNB-78 = test system: SNB-78
DMS-114 = test system: DMS-114
RXF 631 = test system: RXF 631
M19-MEL = test system: M19-MEL
DMS-273 = test system: DMS-273
HOP-18 = test system: HOP-18
Hs-578T = test system: Hs-578T

Measured: GI50

CC1=C(c2ccccc2)CON(c2ccccc2)C1
inactive: XF498 40.6 µM | LXFL 529 29.1 µM | SNB-78 39.9 µM | DMS-114 31 µM | RXF 631 24.8 µM | M19-MEL 38.7 µM

CCOC(=O)C1=C(OC(OCC)C(CC)[Se]c2ccccc2)CCCC1 (stereo not given)
inactive: DMS-273 15.1 µM | XF498 20 µM | LXFL 529 20.5 µM | HOP-18 29.7 µM | SNB-78 22.3 µM | RXF 631 10.2 µM | M19-MEL 15.6 µM

O=C1c2ccccc2C2C1N2C(=O)C(F)(F)F (stereo not given)
inactive: DMS-273 > 100 µM | XF498 > 100 µM | LXFL 529 > 100 µM | HOP-18 > 100 µM | DMS-114 39.9 µM | RXF 631 94.6 µM | M19-MEL > 100 µM

O=C1CC2Sc3ccccc3N=C2N1c1ccc(Cl)cc1Cl (stereo not given)
inactive: XF498 > 100 µM | LXFL 529 84.9 µM | HOP-18 > 100 µM | SNB-78 65.8 µM | DMS-114 33 µM | RXF 631 65.3 µM | M19-MEL 50 µM

CCOC(OC1=CCCC1)C(C)[Se]c1ccccc1 (stereo not given)
inactive: DMS-273 16.9 µM | XF498 20.4 µM | LXFL 529 35.7 µM | HOP-18 28.2 µM | SNB-78 > 100 µM | DMS-114 6.81 µM | RXF 631 16.5 µM | M19-MEL 24.4 µM

CCN(CC)CCCNc1ccc2nnn3c4ccc(O)cc4c(=O)c1c23
inactive: Hs-578T 14.4 µM | DMS-273 3.44 µM | XF498 15.5 µM | LXFL 529 7.67 µM | HOP-18 14.3 µM | SNB-78 16.4 µM | DMS-114 11.7 µM | RXF 631 1.88 µM | M19-MEL 13.8 µM

C1=CC=C2NCCC/N=C3/C=CC=CC=C3NCCC/N=C\2C=C1
inactive: DMS-273 > 100 µM | XF498 > 100 µM | LXFL 529 > 100 µM | SNB-78 > 100 µM | DMS-114 > 100 µM | RXF 631 > 100 µM | M19-MEL > 100 µM

CC(=O)O/N=C/c1ncccc1OC(C)=O
inactive: DMS-273 > 100 µM | XF498 > 100 µM | LXFL 529 > 100 µM | HOP-18 > 100 µM | DMS-114 > 100 µM | RXF 631 > 100 µM | M19-MEL > 100 µM

CCOC(=O)CNC(=O)OCc1ccccc1
inactive: DMS-273 > 100 µM | XF498 > 100 µM | LXFL 529 > 100 µM | SNB-78 > 100 µM | DMS-114 > 100 µM | RXF 631 > 100 µM | M19-MEL > 100 µM
